These results are taken from publication PMC7987348, “Structural basis for human TRPC5 channel inhibition by two distinct inhibitors” (eLife, 2021).

One may read the Hill slope as a measure of the steepness of the concentration-response curve.

The target of one test is T1, hTRPC5 F414M (Homo sapiens, UniProt Q9UL62, F414M).
T1 construct: We use full-length nontagged hTRPC5 construct for FLIPR assay unless indicated otherwise; expressed in transfected cells; host or cells: AD293
T1 sequence (Q9UL62 1-973 F414M): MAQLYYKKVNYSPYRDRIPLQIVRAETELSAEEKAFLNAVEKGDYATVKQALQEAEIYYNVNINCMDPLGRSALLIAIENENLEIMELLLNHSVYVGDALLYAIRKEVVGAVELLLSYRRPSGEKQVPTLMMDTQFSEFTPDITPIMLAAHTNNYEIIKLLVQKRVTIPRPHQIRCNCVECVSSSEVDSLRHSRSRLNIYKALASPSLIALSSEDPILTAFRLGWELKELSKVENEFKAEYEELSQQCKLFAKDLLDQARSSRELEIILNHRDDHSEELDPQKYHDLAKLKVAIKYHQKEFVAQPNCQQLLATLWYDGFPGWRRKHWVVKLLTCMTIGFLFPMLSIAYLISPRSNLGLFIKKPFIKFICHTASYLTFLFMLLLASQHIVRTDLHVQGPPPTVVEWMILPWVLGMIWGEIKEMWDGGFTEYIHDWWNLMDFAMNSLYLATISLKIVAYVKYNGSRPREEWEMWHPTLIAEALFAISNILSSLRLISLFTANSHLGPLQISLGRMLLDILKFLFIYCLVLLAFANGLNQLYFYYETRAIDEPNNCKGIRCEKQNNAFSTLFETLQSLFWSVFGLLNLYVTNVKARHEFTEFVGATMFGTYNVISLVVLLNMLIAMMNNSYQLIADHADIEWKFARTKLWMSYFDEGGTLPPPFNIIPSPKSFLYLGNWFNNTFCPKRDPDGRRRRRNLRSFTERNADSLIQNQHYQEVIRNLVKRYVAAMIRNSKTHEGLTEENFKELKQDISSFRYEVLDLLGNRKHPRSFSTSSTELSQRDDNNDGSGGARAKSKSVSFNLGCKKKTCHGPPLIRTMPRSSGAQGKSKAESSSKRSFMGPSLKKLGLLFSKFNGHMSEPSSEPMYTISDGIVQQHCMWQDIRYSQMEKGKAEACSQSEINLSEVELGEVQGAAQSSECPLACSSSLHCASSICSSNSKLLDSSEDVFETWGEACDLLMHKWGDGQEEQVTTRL
Briefly: FLIPR calcium assay, hTRPC5 mutant F414M. The test is classed as cell-based. The protocol: […]. Then the suspended cell culture was further diluted for 5.4- to 7-fold with culture medium and seeded onto black well, clear bottom, poly-D-lysine-coated 96-well plate (Costar) and cultured overnight. We use full-length nontagged hTRPC5 construct for FLIPR assay unless indicated otherwise. hTRPC5 plasmids were transfected into AD293 cells (60-80% confluence) with PEI. 30–40 hr post-transfection, culture medium was discarded and cells were incubated with 50 μl per well of 4 μM Rhod-2/AM (AAT Bioquest) in TARODES’s buffer (10 mM HEPES, 150 mM NaCl, 4 mM KCl, 2 mM MgCl2, 2 mM CaCl2, 11 mM glucose, pH 7.4) supplemented with 0.02% Pluronic F-127 (Sigma) for 5 min in dark at room temperature. Then dye was removed and replaced with 50 μl of TARODE’s buffer per well. The application of compounds and detection of intracellular calcium elevation were performed using FLIPR-TETRA (Molecular Devices) at room temperature (25–27°C). Fluorescence signals were read with excitation/emission at 510–545/565–625 nm.
[…]. Then fluorescence was measured for 300 s.
Buffer A contains 2× concentration of working concentration of inhibitor. […]. for control-Min, both buffer A and buffer B were replaced by TARODE’s buffer.
[…]; the average of fluorescence value of last 20 time points was considered as the ‘end fluorescence’. The value of ‘end fluorescence’ minus ‘start fluorescence’ was considered as ‘signal value’ for each well. […].
Three independent experiments were performed on different days (biological replicates), with each experiment containing three replicates (technique replicates).

The next test addresses T2, hTRPC5 WT (Homo sapiens, UniProt Q9UL62).
T2 construct: We use full-length nontagged hTRPC5 construct for FLIPR assay unless indicated otherwise; expressed in transfected cells; host or cells: AD293
T2 sequence (Q9UL62 1-973): T1 sequence (Q9UL62 1-973 F414M) with M414F
In words: FLIPR calcium assay, inhibition of extracellular calcium-induced intracellular calcium increase. The test is classed as cell-based. (A change in cytosolic calcium serves as a functional read-out for many receptors and channels.)

Where [1] appears, read: CMZ, 14 mM extracellular calcium, read-out: IC50.
The mark [2] stands for this setting: CMZ, log of IC50 in μM, logIC50 ± SEM, n = 3, read-out: LogIC50 (converted).
The mark [3] stands for this setting: read-out: normalized RFU (% WT), Clemizole 0.200195 μM, 14 mM Ca2+, each column one independent experiment.
Setting [4] is: read-out: normalized RFU (% WT), Clemizole 0.800781 μM, 14 mM Ca2+, each column one independent experiment.

Changes are numbered by the printed parent chain. Where two headings read alike, the source gives them in different places.

Consider `Clc1ccc(Cn2c(CN3CCCC3)nc3ccccc32)cc1` [CMZ, clemizole], for which the values for the Hill slope on hTRPC5 F414M (CMZ) and on hTRPC5 WT (CMZ) were −1.45 and −2.52, respectively. Besides, the IC50 on hTRPC5 F414M (setting [1]) is 2.15 µM; on hTRPC5 F414M (setting [2]), 2.14 µM; on hTRPC5 WT (setting [1]) it was 3.07 µM; at hTRPC5 WT (setting [2]) it was 3.09 µM. Also, the remaining activity at 0.200195 µM was found to be 130% on hTRPC5 F414M (setting [3]) and 76.4% at hTRPC5 WT (setting [3]). Also, the remaining activity at 0.400391 µM on hTRPC5 F414M (read-out: normalized RFU (% WT), Clemizole 0.400391 μM, 14 mM Ca2+, each column one independent experiment) stood at 116%. Moreover, the results for the remaining activity at 0.800781 µM on hTRPC5 F414M (setting [4]) and on hTRPC5 WT (setting [4]) were 107% and 72.6%, respectively. In addition, at hTRPC5 F414M (read-out: normalized RFU (% WT), Clemizole 6.40625 μM, 14 mM Ca2+, each column one independent experiment), the remaining activity at 6.40625 µM worked out at 32.1%. Also, the remaining activity at 1.60156 µM on hTRPC5 WT (read-out: normalized RFU (% WT), Clemizole 1.60156 μM, 14 mM Ca2+, each column one independent experiment) turned out to be 70.5%.
